According to patent publication US11819021B2, “Peptides and methods and uses thereof for modulating anaphase promoting complex (APC) activity” (University of Saskatchewan, priority 2017, dated 2023):
Entries after “also recorded” stand apart in the source; their conditions may differ. No end group written: not given here.

Columns and labels:
[1] = tested on: human breast tumor (4-28 PDX); assay: Tumor growth in mouse model of patient derived triple negative breast cancer (4-28 PDX); assay type: in vivo; details: single 25 mg/kg i.p. injection, Doxorubicin resistant TNBC PDX mouse
Description: (§1) A. In vivo study of M2I-1 impact on human breast tumor (4-28 PDX). Single 25 mg/kg i.p. injection (treatment) versus mock (DMSO) day 1, tumor size measured daily. B. Western analysis of apoptosis (PARP cleavage—24 kDa band) and APC substrate abundance (Cyclin B) in liver and tumor of treated and control after sacrifice on Day 6.
(§2) A mouse model for growing patient derived breast tumor cells obtained from a patient with triple negative breast cancer was developed. This patient had developed resistance to Doxorubicin. Tumors growing in these mice grow rapidly. A mouse was injected with 25 mg/kg M2I-1.

[2] = tested on: OSW canine lymphoma cells; assay: Trypan Blue viability of drug resistant OSW lymphoma cells; assay type: cell-based; details: OSW dog lymphoma cells selected for drug resistance; 1 μmol M2I-1 (18 hrs) then 1 μmol DOX (48 hrs)
Description: (§3) A. Parental MCF7 human breast cancer cells, or cells selected for resistance to Tamoxifen, were treated with 1 or 5 μM M2I-1. Tamoxifen resistant cells were also treated with both Doxorubicin and M2I-1. Trypan Blue. (3 rpts). ND, no data. B. Protein lysates were prepared from the cells used in A. The APC target HURP was measured using antibodies against HURP. C. Trypan Blue was used to measure viability of OSW canine lymphoma cells pretreated with 1 μmol M2I-1 (18 hrs), followed by 1 μmol DOX (48 hrs). Parental cells were only treated with monotherapy (3 rpts). ND, no data. D. OSW matched cells treated with the APC activator M2I-1 were prepared for APC substrate westerns E. Quantification of western protein abundance (3 rpts).
(§4) Drug resistant human breast cancer cells in culture were treated with the M2I-1 activator.

Cyclin B = assay: Western of APC substrate abundance in PDX tumor; assay type: in vivo, mouse; details: 25 mg/kg, after sacrifice on Day 6
Description: as §1, §2

[3] = tested on: MCF7 human breast cancer cells selected for resistance to Tamoxifen; assay: Trypan Blue viability of drug resistant MCF7 breast cancer cells; assay type: cell-based
Description: as §3, §4

HURP = assay: Western of APC substrates in drug resistant MCF7 cells; assay type: cell-based; details: drug resistant human breast cancer cells
Description: as §3, §4

WT cells = assay: Chronological lifespan of WT yeast cells; assay type: cell-based
Description: (§5) A. apc5^CA (temperature sensitive allele) cells were transformed with C43-4, C2-4B or an empty vector. Cells grown overnight in 2% Glu were struck onto 2% Glucose plates and used for the yeast replicative lifespan (RLS) assay. B. Wild type (WT) cells transformed with C43-4, C2-4B or an empty vector were grown to stationary phase in 2% Glu media, then after 2 days spot diluted onto 2% Glu or 2% Gal to induce expression of the aptamers.
(§6) The six peptide expressing vectors were transformed into apc10Δ cells and assessed for temperature sensitive growth. Two of the peptides, C43-4 and C2-4B, suppressed the apc10Δ growth phenotype at 30 and 34° C. (FIG. 1B-D). […] However, C43-4 and C2-4B increased replicative and chronological lifespan in both apc5^CA and WT cells, respectively (FIG. 2A). […] H2O2 induces oxidative stress whereas galactose induces a carbon stress.

apc10Δ cells = assay: Spot dilution growth of apc10Δ cells expressing peptides; assay type: cell-based, yeast; details: 30 and 34° C.
Excerpt: A. Y2H cells expressing the APC subunit bait and the galactose inducible Apc10 peptide prey grown on glucose or galactose. Cells co-expressing the Apc5 or Apc10-bait and Apc10 aptamer-prey vectors were spotted onto the appropriate media, in the presence or absence of galactose (the aptamers are Gal inducible), to confirm 2-hybrid interactions. Growth on trp-his-media ensures both plasmids are maintained. A 2-hybrid interaction will drive expression of the ADE2 gene, allowing growth on ade-media. B. Aptamers that bind Apc10 can suppress APC mutant phenotypes. Spot dilutions of apc10Δ cells expressing an empty vector control or the one of 6 Apc10 aptamers tested. Log phase cells were 10-fold serially diluted and spotted onto plates containing either 2% glucose or 2% galactose. The plates were then incubated at 30° C. (permissive temperature) and 34° C. (restrictive stress). C. Peptides identified as binding to the yeast Apc10 APC subunit using the yeast 2-hybrid screen increase growth of cells on stress conditions. A series of APC binding peptides were transformed into wild type yeast cells, spot diluted, and grown at 30° C. on media supplemented with the normal carbon source (2% glucose). Alternatively, cells were grown on media supplemented with 2% galactose to induce a carbon stress. D. Peptides were expressed in apc5^ts temperature sensitive cells and grown on glucose or galactose media at 30° C.
The cells were exposed to 5 sec of UV from a UV box prior to incubation.
The six peptide expressing vectors were transformed into apc10Δ cells and assessed for temperature sensitive growth. Two of the peptides, C43-4 and C2-4B, suppressed the apc10Δ growth phenotype at 30 and 34° C. (FIG. 1B-D). […]
Over 100 peptides that bound either Apc5 or Apc10 were recovered from millions screened. […] Vectors expressing these 6 peptides were transformed into APC mutant cells and assessed for ts growth.
Methods • 1. […] The growth of the cells was determined by measuring the optical density (OD) of the cells at 600 nm (OD600) • 3. […]

Apc10 = target: T1, Apc10 (Saccharomyces cerevisiae, UniProt P53068); assay: Yeast 2-hybrid (Y2H) binding of peptide prey to Apc10 bait; details: galactose-inducible Trx-scaffold peptide prey
T1 construct: expressed in transfected cells; host or cells: yeast Y2H cells
T1 sequence (P53068 1-250): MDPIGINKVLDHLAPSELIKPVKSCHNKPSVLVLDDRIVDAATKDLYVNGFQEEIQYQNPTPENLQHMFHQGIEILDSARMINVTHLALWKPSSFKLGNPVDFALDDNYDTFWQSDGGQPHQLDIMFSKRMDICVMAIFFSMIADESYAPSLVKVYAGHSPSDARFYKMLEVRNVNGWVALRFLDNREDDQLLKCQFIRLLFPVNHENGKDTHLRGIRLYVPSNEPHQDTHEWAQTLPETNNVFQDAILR
Description: (§7) The reverse genetic screen utilized a yeast 2-hybrid (Y2H) protocol that selected for peptides that bound to the APC subunits Apc5 or Apc10 (see FIG. 5 for APC structure), to assess whether peptide-binding might modify APC function. Peptides that bound APC subunits were then assayed for those that suppressed APC mutant defects.
A library of random small peptides were cloned into a Thioredoxin (Trx) scaffold (see FIG. 6 for Trx-aptamer structure) and expressed from a galactose-inducible Y2H prey vector in cells expressing the Apc10 bait vector (the modified Apc10 is still part of the complete APC complex). Six peptides that reproducibly interacted with the Apc10 bait construct in Y2H assays were identified (FIG. 1A) and were examined further.
(§8) Random small peptides were cloned into the TrxA scaffold (library provided by R. Geyer, U of S) and expressed from a galactose-inducible Y2H prey vector in cells harboring either APC5 or APC10 Y2H bait vectors (APC5/APC10 bait constructs complement APC mutant defects).
(§9) Over 100 peptides that bound either Apc5 or Apc10 were recovered from millions screened. Six peptides that reproducibly interacted with the Apc10 bait construct in Y2H assays were examined further. Vectors expressing these 6 peptides were transformed into APC mutant cells and assessed for ts growth.

apc5^CA cells = assay: Yeast replicative lifespan (RLS) assay; assay type: cell-based
Description: as §5
(§10) A. apc5^CA cells expressing small peptides were assayed for replicative life span (RLS). B. Cells expressing HTZ1 were grown under stress conditions. HTZ1 expression, even at low levels, suppresses apc5^CA and apc10Δ defects. The cells shown were transformed with either an empty vector or GAL inducible HTZ1. On 2% glucose, the construct is weakly expressed, and this is enough to increase growth of APC mutants at 30° C.

[4] = tested on: APC mutant (apc5 temperature sensitive mutant and/or apc10Δ mutant); assay: Viability/growth of APC mutant yeast cells; assay type: cell-based
Description: as §10
Examples of yeast cells with defective anaphase promoting complex (APC) function include apc5 and apc10 mutants. An example of an apc5 mutant is the apc5 temperature sensitive mutant described herein. An example of an apc10 mutant is the apc10 deletion mutant described herein.
as §7, §9

Securin = assay: Western of APC substrate in transformed wheat embryos; assay type: cell-based
Description: (§11) A. Wheat embryos were transformed with an expression vector harboring the C43-4-HA peptide fused to the red fluoresce protein (RFP), or an RFP empty vector, using a ballistic shotgun approach. Embryos were imaged using fluorescence to view RFP. B. Protein lysates were prepared from the transformed embryos and subjected to western analyses using antibodies against the APC substrate Securin. A nonspecific protein band is used to control for protein load.
APC targets APC substrates for degradation such that the relative levels provides an indication of APC activity in a cell. For example, if the substrates are reduced, without being bound by any theory, it is believed to mean that the APC is working better.

[5] = tested on: wild type (WT) yeast cells; assay: Spot dilution growth and stress resistance of wild type yeast cells expressing peptides; assay type: cell-based
Description: as §5
The cells were exposed to 5 sec of UV from a UV box prior to incubation. The plus signs define growth compared to the empty vector control.
as §6
These cells were spot diluted on Trp-plates and grown at the temperatures shown and/or exposed to ultraviolet (UV) irradiation (FIG. 11). At low level expression on glucose, some of the mutations caused stress dependent phenotypes.
Methods • 1. Cells were cultured overnight in Trp-2% glucose media • 2. The growth of the cells was determined by measuring the optical density (OD) of the cells at 600 nm (OD600) • 3. Cells were diluted to OD600 of 1 with fresh culture media • 4. 100 ul of each culture was pipetted into a well of a 96 well plate • 5. 10 ul of the each starting culture was pipetted into 90 ul of water in 4 additional wells to make a 10-fold serial spot dilution • 6. 5 ul from each serial dilution was spotted onto plates containing standard growth media with either 2% glucose or 2% galactose using a multi-pipettor • 7. The plates were exposed to UV • 8. The plates were then placed at room temperature, 30, 34 or 37° C. for 3-7 days • 9. The plates were scanned and saved as tiff files

wheat embryos = assay: Expression of C43-4 in wheat embryos: localization and germination; assay type: in vivo; details: versus empty vector controls
Description: as §11
C43-4 was subcloned into a plant vector and expressed in wheat embryos.
The wheat embryos (scutella) were transformed using a Biolistics-mediated transformation of wheat embryos. Wheat embryos were inoculated with Agrobacterium harbouring an RFP expression vector. Following inoculation with Agrobacterium, embryos were placed on a medium that allows for growth of both the embryos and the Agrobacterium. Timentin was used for killing remaining A. tumefaciens cells after co-cultivation.
Germination rate was determined as a function of time to observe growth from the embryo and on average, the transformed embryos containing the peptide germinated before empty vector controls. […] Accordingly, the Htz1-like peptide (C43-4) activates the APC in plants.

[6] = tested on: apc5^CA temperature sensitive mutant; assay: Forward genetic screen: rescue of apc5^CA temperature sensitive growth; assay type: cell-based, yeast
Excerpt: Using a forward genetic screen to test whether temperature sensitive (ts) APC mutants expressing random small peptides could grow at restrictive temperatures, millions of small peptides were rapidly screened for those that could restore mutant APC phenotypes. Peptides that rescued the apc5^CA ts (temperature sensitive) defect were recovered including peptides Y65 and Y36.
In the forward screens, with galactose-inducible TrxA-based peptide libraries, in cells harboring the apc5^CA ts allele, over 200 peptides (from millions screened) suppressed the ts phenotype. Several recovered plasmids were sequenced.

APC = assay: Yeast 2-hybrid binding to the APC
Excerpt: As used herein, the expression “binds to the APC” refers to a peptide that binds to at least one subunit of the APC, for example Apc5 or Apc10. Binding can be measured for example, by any method known in the art, including, but not limited to a yeast 2-hybrid assay.
as §7, §8

Cin5 = target: T2, Cin5 (Saccharomyces cerevisiae, UniProt P40917); assay: Yeast 2-hybrid with Y65 bait to identify binding partners
T2 construct: expressed in transfected cells; host or cells: yeast Y2H cells
T2 sequence (P40917 1-295): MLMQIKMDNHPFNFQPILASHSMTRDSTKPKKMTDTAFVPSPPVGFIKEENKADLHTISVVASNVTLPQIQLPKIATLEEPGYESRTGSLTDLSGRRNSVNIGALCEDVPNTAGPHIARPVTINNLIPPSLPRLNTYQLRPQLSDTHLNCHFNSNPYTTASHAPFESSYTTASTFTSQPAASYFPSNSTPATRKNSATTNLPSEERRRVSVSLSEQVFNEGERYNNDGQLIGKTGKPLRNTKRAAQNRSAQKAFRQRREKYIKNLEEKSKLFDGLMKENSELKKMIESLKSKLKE
Excerpt: One peptide in particular, Y65, was of interest because it had homology to Elongin C (Elc1; Y65 is 20 amino acids in length, with a 7 residue stretch sharing 86% identity and 100% similarity with Elc1). Elc1 is a ubiquitin-protein ligase (E3) conserved among eukaryotes that is involved in DNA repair (Harreman et al, 2009; Ribar et al, 2007). To identify what the peptides bound in order to modify APC activity, Y65 was cloned into the Y2H bait vector and used to identify binding partners.

Compound: CC(C)CN(CC(C)C)c1ccc(C=C2C(=O)NC(=S)NC2=O)cc1[N+](=O)[O-] [M2I-1, Mad2 Inhibitor-1]
- Tumor growth [1]: stalled
- Cell killing in combination with chemotherapy [2]: only in the presence of M2I-1 were cells killed
- Markers of APC substrates in the tumor (Cyclin B): positive for APC activation
- Growth / toxicity of activator alone in drug resistant breast cancer cells ([3]; 1 or 5 μM, 18 hrs, Trypan Blue): did not impair the growth; also recorded: not toxic
- Cell killing / toxicity in combination with chemotherapy (Doxorubicin) ([3]; Tamoxifen resistant MCF7 cells): only in the presence of M2I-1 were cells killed; also recorded: enhances toxicity
- Levels of APC substrates (HURP): reduced

Compound: NGSSHNDLRVRRLTLISRLC (also: expressed in thioredoxin scaffold) [C43-4, Peptide aptamer expressed from Thioredoxin scaffold; residues 2-14 homologous to Htz1]
- Chronological lifespan (WT cells): increased
- apc10Δ growth phenotype (apc10Δ cells): suppressed
- Binds Apc10 in a yeast 2 hybrid assay (Apc10): Binds Apc10
- Replicative lifespan (apc5^CA cells): increased
- Viability of an APC mutant [4]: increases the viability
- Level of tested APC substrate in the embryo (Securin): reduced level
- Log phase growth of wild type (WT) cells ([5]; 30° C.): Neither C43-4 nor C2-4B influenced
- Stress resistance at low level expression ([5]; WT cells on glucose, temperature and/or UV stress, versus empty vector): increased stress resistance
- Stress resistance when overexpressed in WT yeast cells ([5]; overexpressed, H2O2 oxidative stress, galactose carbon stress): increased stress resistance
- Germination of transformed wheat embryos (wheat embryos): germinated faster

Compound: VRQKSDKEYERVLGLGLRRL [Y65, Peptide with homology to Elc1]
- apc5^CA temperature sensitive (ts) growth / viability of an apc5 temperature sensitive mutant [6]: increases the viability; also recorded: rescued; also recorded: Rescues apc5^CA temperature
- Binding to the APC in a yeast 2HY assay (APC): not bind the APC in a yeast 2HY
- Interaction with Cin5 in a yeast 2 hybrid assay (Cin5): One peptide binding partner was isolated, Cin5; also recorded: Interacts with Cin5 in a yeast 2
